Results: patent US9409864B2, “Sulfonamide TRPA1 receptor antagonists” (ARIO PHARMA LIMITED, priority 2013, dated 2016)

Target: T1, native human TRPA1 receptors (Homo sapiens, UniProt O75762)
T1 construct: stably expressing native human TRPA1 receptors were used; endogenous in cells; host or cells: A549 human lung adenocarcinoma epithelial cell line
Assay: PF-4840154 (1 μM)-induced Ca2+ fluorescence measurements in A549 cell line
Assay type: cell-based
Conditions: for inhibition at 10 µM: 10 μM compound against 1 μM PF-4840154, A549 cells; for IC50: A549 cells
Experimental: PF-4840154 (1 μM)-Induced Ca^2+ Fluorescence Measurements in A549 Cell Line
Human lung adenocarcinoma epithelial cell line (A549) stably expressing native human TRPA1 receptors were used. The cells were cultured in medium consisting of Eagle's minimal essential medium (EMEM) supplemented with 10% fetal bovine serum (FBS), penicillin (100 IU/ml), streptomycin ([…]), L-glutamine (2 mM), sodium bicarbonate (2.5 g/L) and HEPES (24 mM). Cells were kept at 37° C. in 5% CO2/humidified air. For the experiments the cells were seeded at a density of 16,000 cells/well into 96-well black, clear-bottom plates. After 24 hours incubation the cells were loaded with medium supplemented with 2.5 mM probenecid, 3 μM of the calcium sensitive fluorescent dye Fluo-4 AM and 0.01% pluronic acid, for 30 min at 37° C. Afterwards the loading solution was aspirated and 100 μl/well of assay buffer: Hank's Balanced Salt Solution (HBSS) supplemented with 2.5 mM probenecid and 500 μM Brilliant Black (Aldrich) was added. Stock solutions (100 mM) of ligands were made in Dimethyl Sulfoxide (DMSO) and stored at −20° C. Serial dilutions of ligands for experimental use were made in HBSS buffer. After placing both plates (cell culture and compound plate) into the FlexStation II (Molecular Device, Union City, Calif. 94587, US), fluorescence changes were measured. On-line additions were carried out in a volume of […]. To facilitate drug diffusion into the wells in antagonist type experiments, the studies were performed at 36.5° C. and three cycles of mixing (25 μl from each well moved up and down 3 times) were performed immediately after antagonist injection to the wells. All exemplified compounds were tested alone (to address residual agonistic activity) and against 1 μM of PF-4840154 to address inhibitory activity at the initial concentration of 10 μM. For selected examples the entire inhibitory concentration-response curves were constructed and the IC50 value calculated.
PF-4840154 (1 μM) increased [Ca^2+] in the vast majority (95%) of cultured cells which were thereby identified as TRPA1 expressing cells.

[1] = against PF-4840154 (1 μM)-evoked [Ca2+]i mobilization
[2] = against PF-4840154 (1 μM), cells printed in μM

T1 sequence (O75762 whole entry): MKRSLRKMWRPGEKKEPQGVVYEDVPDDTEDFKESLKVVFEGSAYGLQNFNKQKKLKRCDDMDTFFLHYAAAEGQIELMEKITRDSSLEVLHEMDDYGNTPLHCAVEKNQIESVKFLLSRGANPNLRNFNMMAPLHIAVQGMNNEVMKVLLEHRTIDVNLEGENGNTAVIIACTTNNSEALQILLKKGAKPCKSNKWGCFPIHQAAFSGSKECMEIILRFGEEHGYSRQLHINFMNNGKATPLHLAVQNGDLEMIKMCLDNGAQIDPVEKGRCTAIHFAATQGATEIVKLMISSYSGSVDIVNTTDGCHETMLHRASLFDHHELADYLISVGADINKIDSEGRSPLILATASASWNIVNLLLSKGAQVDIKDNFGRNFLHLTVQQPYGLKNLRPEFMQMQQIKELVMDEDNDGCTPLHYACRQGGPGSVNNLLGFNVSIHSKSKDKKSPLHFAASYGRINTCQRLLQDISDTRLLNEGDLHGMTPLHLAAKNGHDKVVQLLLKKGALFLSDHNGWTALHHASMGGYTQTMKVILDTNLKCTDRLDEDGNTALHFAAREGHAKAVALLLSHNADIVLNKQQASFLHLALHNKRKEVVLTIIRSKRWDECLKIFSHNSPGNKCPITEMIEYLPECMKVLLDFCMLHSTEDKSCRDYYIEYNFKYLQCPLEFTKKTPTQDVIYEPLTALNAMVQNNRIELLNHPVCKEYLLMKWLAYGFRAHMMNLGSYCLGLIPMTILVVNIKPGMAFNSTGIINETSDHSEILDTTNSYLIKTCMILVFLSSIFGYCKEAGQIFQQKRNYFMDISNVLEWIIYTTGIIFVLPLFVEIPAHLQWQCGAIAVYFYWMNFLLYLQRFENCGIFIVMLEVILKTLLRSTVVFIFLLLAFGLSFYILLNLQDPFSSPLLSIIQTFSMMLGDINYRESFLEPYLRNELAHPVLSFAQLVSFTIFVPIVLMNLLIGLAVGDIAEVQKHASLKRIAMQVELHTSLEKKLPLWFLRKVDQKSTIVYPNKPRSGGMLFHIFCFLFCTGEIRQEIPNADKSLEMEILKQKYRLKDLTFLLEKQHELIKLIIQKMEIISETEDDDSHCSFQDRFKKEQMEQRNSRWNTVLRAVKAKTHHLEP

| inhibition at 10 µM [%] | IC50 [1] [µM] | IC50 [2] [µM] | SMILES |
| --- | --- | --- | --- |
| 100 | 0.323 | – | C/C=C(/C(=O)NCc1ccnc(-c2ccc(OC(F)(F)F)cc2)c1)N(C)S(=O)(=O)c1ccc(F)cc1 [Example 21, (Z)-2-[(4-fluorophenyl)sulfonyl-methyl-amino]-N-[[2-[4-(trifluoromethoxy)phenyl]-4-pyridyl]methyl]but-2-enamide] |
| 97 | 0.246 | – | C/C=C(/C(=O)NCc1ccnc(-c2ccc(OC(F)(F)F)cc2)c1)N(CC)S(=O)(=O)c1ccc(F)cc1 [Example 22, (Z)-2-[ethyl-(4-fluorophenyl)sulfonyl-amino]-N-[[2-[4-(trifluoromethoxy)phenyl]-4-pyridyl]methyl]but-2-enamide] |
| 98 | 0.437 | – | C/C=C(/C(=O)NCc1cccc(-c2ccc(C(F)(F)F)cc2)c1)N(C)S(=O)(=O)c1ccc(Cl)cc1 [Example 23, (Z)-2-[(4-chlorophenyl)sulfonyl-methyl-amino]-N-[[3-[4-(trifluoromethyl)phenyl]phenyl]methyl]but-2-enamide] |
| 97 | 0.724 | – | C/C=C(/C(=O)NCc1cccc(-c2ccc(C(F)(F)F)cc2)c1)N(CC)S(=O)(=O)c1ccc(Cl)cc1 [Example 24, (Z)-2-[(4-chlorophenyl)sulfonyl-ethyl-amino]-N-[[3-[4-(trifluoromethyl)phenyl]phenyl]methyl]but-2-enamide] |
| 100 | 0.076 | – | CCN(C1(C(=O)NCc2ccnc(-c3ccc(C(F)(F)F)cc3)c2)CC1)S(=O)(=O)c1ccc(F)cc1 [Example 25, 1-[ethyl-(4-fluorophenyl)sulfonyl-amino]-N-[[2-[4-(trifluoromethyl)phenyl]-4-pyridyl]methyl]cyclopropanecarboxamide] |
| 100 | 0.135 | – | CCN(C1(C(=O)NCc2ccnc(-c3ccc(OC(F)(F)F)cc3)c2)CC1)S(=O)(=O)c1ccc(Cl)cc1 [Example 27, 1-[(4-chlorophenyl)sulfonyl-ethyl-amino]-N-[[2-[4-(trifluoromethoxy)phenyl]-4-pyridyl]methyl]cyclopropanecarboxamide] |
| 100 | 0.129 | – | CCN(C1(C(=O)NCc2ccnc(-c3ccc(OC(F)(F)F)cc3)c2)CC1)S(=O)(=O)c1ccc(Cl)s1 [Example 28, 1-[(5-chloro-2-thienyl)sulfonyl-ethyl-amino]-N-[[2-[4-(trifluoromethoxy)phenyl]-4-pyridyl]methyl]cyclopropanecarboxamide] |
| 100 | 0.138 | – | CCN(C1(C(=O)NCc2cccc(-c3ccc(C(F)(F)F)cc3)c2)CC1)S(=O)(=O)c1ccc(F)cc1 [Example 29, 1-[ethyl-(4-fluorophenyl)sulfonyl-amino]-N-[[3-[4-(trifluoromethyl)phenyl]phenyl]methyl]cyclopropanecarboxamide] |
| 100 | 0.057 | – | CCN(C1(C(=O)NCc2cccc(-c3ccc(OC(F)(F)F)cc3)c2)CC1)S(=O)(=O)c1ccc(F)cc1 [Example 31, 1-[ethyl-(4-fluorophenyl)sulfonyl-amino]-N-[[3-[4-(trifluoromethoxy)phenyl]phenyl]methyl]cyclopropanecarboxamide] |
| 80 | – | > 4 | O=C(NCc1cc(-c2ccc(C(F)(F)F)cc2)nc(N2CCCC2)c1)C1(NS(=O)(=O)c2ccc(F)cc2)CC1 [Example 32, 1-[(4-fluorophenyl)sulfonylamino]-N-[[2-pyrrolidin-1-yl-6-[4-(trifluoromethyl)phenyl]-4-pyridyl]methyl] cyclopropanecarboxamide] |
| 55 | – | > 2 | O=C(NCc1cc(-c2ccc(OC(F)(F)F)cc2)nc(N2CCCC2)c1)C1(NS(=O)(=O)c2ccc(F)cc2)CC1 [Example 33, 1-[(4-fluorophenyl)sulfonylamino]-N-[[2-pyrrolidin-1-yl-6-[4-(trifluoromethoxy)phenyl]-4-pyridyl]methyl]cyclopropanecarboxamide] |
| 100 | 0.058 | – | C=C(C(=O)NCc1ccnc(-c2ccc(C(F)(F)F)cc2)c1)N(CC)S(=O)(=O)c1ccc(F)c(F)c1 [Example 35, 2-[(3,4-difluorophenyl)sulfonyl-ethyl-amino]-N-[[2-[4-(trifluoromethyl)phenyl]-4-pyridyl]methyl]prop-2-enamide] |
| 100 | 0.118 | – | C=C(C(=O)NCc1ccnc(-c2ccc(C(F)(F)F)cc2)c1)N(CC)S(=O)(=O)c1cccc(F)c1 [Example 36] |
| 100 | 0.02 | – | C=C(C(=O)NCc1cc(-c2ccc(C(F)(F)F)cc2)nc(N(C)C)c1)N(CC)S(=O)(=O)c1ccc(Cl)s1 [Example 39, 2-[(5-chloro-2-thienyl)sulfonyl-ethyl-amino]-N-[[2-dimethylamino-6-[4-(trifluoromethyl)phenyl]-4-pyridyl]methyl]prop-2-enamide] |
| 96 | 0.135 | – | C=C(C(=O)NCc1cc(-c2ccc(C(F)(F)F)cc2)nc(N(C)C)c1)N(CC)S(=O)(=O)c1cccs1 [Example 41, N-[[2-dimethylamino-6-[4-(trifluoromethyl)phenyl]-4-pyridyl]methyl]-2-(ethyl(2-thienylsulfonyl)amino)prop-2-enamide] |
| 100 | 0.104 | – | C=C(C(=O)NCc1cc(-c2ccc(C(F)(F)F)cc2)nc(N2CCOCC2)c1)N(CC)S(=O)(=O)c1ccc(F)cc1 [Example 42, 2-[ethyl-(4-fluorophenyl)sulfonyl-amino]-N-[[2-morpholino-6-[4-(trifluoromethyl)phenyl]-4-pyridyl]methyl]prop-2-enamide] |
| 100 | 0.048 | – | C=C(C(=O)NCc1cc(-c2ccc(C(F)(F)F)cc2)nc(N2CCOCC2)c1)N(CC)S(=O)(=O)c1ccc(Cl)s1 [Example 43, 2-[(5-chloro-2-thienyl)sulfonyl-ethyl-amino]-N-[[2-morpholino-6-[4-(trifluoromethyl)phenyl]-4-pyridyl]methyl]prop-2-enamide] |
| 100 | 0.018 | – | C=C(C(=O)NCc1cc(OC(C)C)nc(-c2ccc(C(F)(F)F)cc2)c1)N(CC)S(=O)(=O)c1ccc(F)cc1 [Example 44, 2-[ethyl-(4-fluorophenyl)sulfonyl-amino]-N-[[2-isopropoxy-6-[4-(trifluoromethyl)phenyl]-4-pyridyl]methyl]prop-2-enamide] |
| 100 | 0.151 | – | CCN(C1(C(=O)NCc2cc(-c3ccc(C(F)(F)F)cc3)nc(N(C)C)c2)CC1)S(=O)(=O)c1ccc(F)cc1 [Example 45, N-[[2-dimethylamino-6-[4-(trifluoromethyl)phenyl]-4-pyridyl]methyl]-1-[ethyl-(4-fluorophenyl)sulfonyl-amino]cyclopropanecarboxamide] |
| 97 | 0.063 | – | CCN(C1(C(=O)NCc2ccnc(-c3ccc(C(F)(F)F)cc3)c2)CC1)S(=O)(=O)c1ccc(Cl)s1 [Example 46, 1-[(5-chloro-2-thienyl)sulfonyl-ethyl-amino]-N-[[2-[4-(trifluoromethyl)phenyl]-4-pyridyl]methyl]cyclopropanecarboxamide] |
| 96 | 0.113 | – | CCN(C1(C(=O)NCc2cccc(-c3ccc(OC(F)(F)F)cc3)c2)CC1)S(=O)(=O)c1ccc(Cl)s1 [Example 47, 1-[(5-chloro-2-thienyl)sulfonyl-ethyl-amino]-N-[[3-[4-(trifluoromethoxy)phenyl]phenyl]methyl]cyclopropanecarboxamide] |
